Assay results published in PMC10794144, “A novel antibiotic class targeting the lipopolysaccharide transporter” (Nature, 2024).
Converted amounts (≈) assume the structure as drawn. Where two headings read alike, the source gives them in different places.

Legend:
K. pneumoniae = experiment: MIC versus efflux impaired strains; assay type: cell-based, Klebsiella pneumoniae
Protocol: (§1) MIC determinations were performed using the broth microdilution method and in line with CLSI guidelines M07 and M100 (refs. [37],[38]). Bacterial inocula were prepared by diluting a 0.5 McFarland suspension in CAMHB or lysogeny broth (LB) specifically for A. baylyi isolates. […] MIC values of all of the tested antibiotics were read as the lowest compound concentration inhibiting bacterial growth by naked eye or beyond which the OD600 ceased to decrease.

P. aeruginosa = experiment: MIC versus efflux impaired and porin deficient strains; assay type: cell-based, Pseudomonas aeruginosa
Protocol: as §1

E. coli = experiment: as above; assay type: cell-based; settings: Escherichia coli
Protocol: as §1

[1] = system: A. baylyi ADP1 (ATCC 33305); experiment: MIC of constructed lptF mutants in LB, OD600; assay type: cell-based, Acinetobacter baylyi
Protocol: as §1
Culture, genetic manipulation and MIC measurements of A. baylyi ADP1 were conducted according to previously reported procedures[56],[57].

[2] = system: A. baumannii MDR isolates; experiment: Single-step spontaneous mutation frequency; assay type: cell-based, Acinetobacter baumannii
Protocol: (§2) Molten Mueller–Hinton agar (19 ml) supplemented with 20% human serum was added to 1 ml of compound at 20× the final concentration, poured immediately into Petri dishes (100 mm diameter) and gently mixed. Then, 2–3 colonies from agar plates were inoculated into CAMHB and incubated overnight under shaking (150 rpm). […] The agar plates were incubated aerobically at 35 ± 2 °C.

E. coli LptB2FGC = molecular target: T1, E. coli LptB2FGC (Escherichia coli, UniProt P0ADC6+P0AF98); experiment: LPS-release assay, proteoliposomes to LptA; assay type: biochemical; settings: E. coli LptB2FGC proteins
T1 construct: made in house; host or cells: E. coli C43(λDE3)
T1 sequence (P0AF98 whole entry): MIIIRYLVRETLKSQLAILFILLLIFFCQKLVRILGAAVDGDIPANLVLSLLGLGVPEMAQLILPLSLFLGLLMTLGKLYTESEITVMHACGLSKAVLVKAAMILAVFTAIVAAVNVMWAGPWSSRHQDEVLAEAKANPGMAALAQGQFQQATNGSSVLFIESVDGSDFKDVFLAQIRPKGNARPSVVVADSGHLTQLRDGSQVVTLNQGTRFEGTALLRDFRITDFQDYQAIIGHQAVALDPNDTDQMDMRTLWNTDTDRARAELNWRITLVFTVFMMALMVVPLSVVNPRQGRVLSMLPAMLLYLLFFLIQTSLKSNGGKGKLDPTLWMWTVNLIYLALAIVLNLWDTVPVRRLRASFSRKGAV
T1 sequence (P0ADC6 whole entry): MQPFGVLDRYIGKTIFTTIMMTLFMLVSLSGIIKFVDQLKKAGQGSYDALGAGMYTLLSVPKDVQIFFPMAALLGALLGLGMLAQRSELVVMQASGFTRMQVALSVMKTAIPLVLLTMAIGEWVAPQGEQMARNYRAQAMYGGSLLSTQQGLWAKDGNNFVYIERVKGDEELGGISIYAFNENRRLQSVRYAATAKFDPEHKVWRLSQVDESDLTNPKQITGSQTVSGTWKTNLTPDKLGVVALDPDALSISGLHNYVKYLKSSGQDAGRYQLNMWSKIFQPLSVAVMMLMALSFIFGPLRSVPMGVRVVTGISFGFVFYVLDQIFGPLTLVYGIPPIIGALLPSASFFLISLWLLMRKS
T1 sequence (P0A9V1 whole entry partner): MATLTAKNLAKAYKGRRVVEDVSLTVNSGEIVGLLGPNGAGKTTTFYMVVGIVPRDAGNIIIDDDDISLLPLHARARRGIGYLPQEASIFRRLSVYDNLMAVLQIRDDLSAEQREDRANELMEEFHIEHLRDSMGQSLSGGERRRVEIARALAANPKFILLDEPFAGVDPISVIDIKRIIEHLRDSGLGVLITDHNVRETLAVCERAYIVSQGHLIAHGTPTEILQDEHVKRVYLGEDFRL
T1 sequence (P0ADV9 whole entry partner): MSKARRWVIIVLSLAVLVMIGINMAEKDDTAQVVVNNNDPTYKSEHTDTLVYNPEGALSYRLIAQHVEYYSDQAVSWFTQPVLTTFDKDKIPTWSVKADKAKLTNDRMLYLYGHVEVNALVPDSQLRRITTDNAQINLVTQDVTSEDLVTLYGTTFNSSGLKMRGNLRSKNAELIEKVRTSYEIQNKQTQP
Protocol: The levels of release of LPS from proteoliposomes to LptA were measured as previously described. Assays used 60% proteoliposomes (by volume) in a solution containing 50 mM Tris-HCl (pH 8.0), 500 mM NaCl, 10% glycerol and 2 µM LptA^I36pBPA. Reaction mixtures were incubated with drug for 10 min at room temperature, as applicable. Reactions were then initiated by the addition of ATP and MgCl2 (final concentrations of 5 mM and 2 mM, respectively) and proceeded at 30 °C. Aliquots (25 µl) were removed from the reaction mixtures and irradiated with ultraviolet light (365 nm) on ice for 10 min using a B-100AP lamp (Thermo Fisher Scientific). After ultraviolet irradiation, 25 µl 2× SDS–PAGE sample loading buffer was added, the samples were boiled for 10 min and proteins were separated using Tris-HCl 4–20% polyacrylamide gradient gels with Tris-glycine running buffer. Immunoblotting was conducted as described above.

A. baumannii = experiment: Agar dilution MIC, Mueller–Hinton agar with 20% human serum; assay type: cell-based; settings: Acinetobacter baumannii
Protocol: as §2

[3] = Distribution coefficient logD7.4; assay type: physicochemical; settings: pH 7.4

SMILES: CN1C(=O)[C@H](CCCCN)NC(=O)[C@H](CCCN)NCc2cccnc2Sc2c(Cl)ccc(Cl)c2CNC(=O)[C@@H]1Cc1c[nH]c2ccccc12 [RO7075573]
- MIC (K. pneumoniae; K. pneumoniae 1161486a, efflux impaired, Δ acrAB): >64 µg/mL
- MIC (K. pneumoniae; Klebsiella pneumoniae, K. pneumoniae 1161486, WT, read-out: MIC): > 64 µg/mL
- MIC (P. aeruginosa; P. aeruginosa PAOD1, porin deficient, PAO1 Δ oprD): >64 µg/mL
- MIC (P. aeruginosa; Pseudomonas aeruginosa, P. aeruginosa PAO1, WT, read-out: MIC): > 64 µg/mL
- MIC (P. aeruginosa; Pseudomonas aeruginosa, P. aeruginosa PAO397, efflux impaired and porin deficient, read-out: MIC): 64 µg/mL (≈ 86.5 µM)
- MIC (E. coli; E. coli 7623, WT, CAMHB, 100% inhibition, n = 1): > 64 µg/mL
- MIC (E. coli; E. coli 7623-, efflux impaired, Δ tolC): 32 µg/mL (≈ 43.3 µM)
- MIC (E. coli; E. coli R1535, porin deficient, Δ (OmpC; OmpF)): > 64 µg/mL

SMILES: CN1C(=O)[C@H](CCCCN)NC(=O)[C@H](CCCN)NCc2cccnc2Sc2cccc(-c3ccc(C(=O)O)cc3)c2CNC(=O)[C@@H]1Cc1c[nH]c2ccccc12 [zosurabalpin]
- Fold MIC increase ([1]; constructed LptF (E249K&I317N)): > 700
- Fold MIC increase ([1]; constructed LptF E249K): 242
- Fold MIC increase ([1]; constructed LptF I317N): 128
- Fold MIC increase ([1]; constructed LptF K320T): 20
- Fold MIC increase ([1]; constructed LptF R322C): 9
- PROPORTION_R ([2]; A. baumannii ACC00445, inoculum 3.30E+08, selection 2xMIC, 0.5 ug/ml): 1.70E-07
- PROPORTION_R ([2]; A. baumannii ACC00445, inoculum 3.30E+08, selection 4xMIC, 1 ug/ml): 6.50E-08
- PROPORTION_R ([2]; A. baumannii ACC00445, inoculum 3.30E+08, selection 8xMIC, 2 ug/ml): 3.10E-09
- PROPORTION_R ([2]; A. baumannii ACC00445, inoculum 3.30E+08, selection 16xMIC, 4 ug/ml): <3.1E-09
- PROPORTION_R ([2]; A. baumannii ACC00535, inoculum 3.50E+08, selection 4xMIC, 0.5 ug/ml): 1.50E-07
- PROPORTION_R ([2]; A. baumannii ACC00535, inoculum 3.50E+08, selection 8xMIC, 1 ug/ml): 8.90E-08
- PROPORTION_R ([2]; A. baumannii ACC00535, inoculum 3.50E+08, selection 16xMIC, 2 ug/ml): <2.9E-09
- PROPORTION_R ([2]; A. baumannii ACC01073, inoculum 2.80E+08, selection 2xMIC, 2 ug/ml): 1.10E-08
- PROPORTION_R ([2]; A. baumannii ACC01073, inoculum 2.80E+08, selection 4xMIC, 4 ug/ml): 7.30E-09
- PROPORTION_R ([2]; A. baumannii ACC01073, inoculum 2.80E+08, selection 8xMIC, 8 ug/ml): <3.6E-09
- PROPORTION_R ([2]; A. baumannii ACC01073, inoculum 2.80E+08, selection 16xMIC, 16 ug/ml): <3.6E-09
- PROPORTION_R ([2]; A. baumannii ACC01077, inoculum 2.80E+08, selection 2xMIC, 0.5 ug/ml): 3.60E-09
- PROPORTION_R ([2]; A. baumannii ACC01077, inoculum 2.80E+08, selection 4xMIC, 1 ug/ml): <3.6E-09
- PROPORTION_R ([2]; A. baumannii ACC01077, inoculum 2.80E+08, selection 8xMIC, 2 ug/ml): <3.6E-09
- PROPORTION_R ([2]; A. baumannii ACC01077, inoculum 2.80E+08, selection 16xMIC, 4 ug/ml): <3.6E-09
- PROPORTION_R ([2]; A. baumannii ACC01085_CDC AR307, inoculum 5.50E+08, selection 2xMIC, 0.5 ug/ml): 1.10E-06
- PROPORTION_R ([2]; A. baumannii ACC01085_CDC AR307, inoculum 5.50E+08, selection 4xMIC, 1 ug/ml): <1.8E-09
- PROPORTION_R ([2]; A. baumannii ATCC BAA-747, inoculum 7.50E+07, selection 8xMIC, 0.5 ug/ml): <1.3E-08
- PROPORTION_R ([2]; A. baumannii ATCC BAA-747, inoculum 7.50E+07, selection 16xMIC, 1 ug/ml): <1.3E-08
- PROPORTION_R ([2]; A. baumannii ROB08706, inoculum 5.00E+07, selection 2xMIC, 2 ug/ml): 4.00E-08
- PROPORTION_R ([2]; A. baumannii ROB08706, inoculum 5.00E+07, selection 4xMIC, 4 ug/ml): 6.00E-08
- PROPORTION_R ([2]; A. baumannii ROB08706, inoculum 5.00E+07, selection 8xMIC, 8 ug/ml): <2.0E-08
- PROPORTION_R ([2]; A. baumannii ROB08706, inoculum 5.00E+07, selection 16xMIC, 16 ug/ml): <2.0E-08
- PROPORTION_R ([2]; A. baumannii ROB08708, inoculum 2.40E+08, selection 4xMIC, 0.5 ug/ml): 1.10E-07
- PROPORTION_R ([2]; A. baumannii ROB08708, inoculum 2.40E+08, selection 8xMIC, 1 ug/ml): <4.2E-09
- PROPORTION_R ([2]; A. baumannii ROB08708, inoculum 2.40E+08, selection 16xMIC, 2 ug/ml): <4.2E-09
- Single-step spontaneous mutation frequency ([2]; ACC00445, 2× MIC): 2 × 10^−7
- Single-step spontaneous mutation frequency ([2]; ACC00445, 4× MIC): 7 × 10^−8
- Single-step spontaneous mutation frequency ([2]; ACC00445, 8× MIC): 3 × 10^−9
- Single-step spontaneous mutation frequency ([2]; ACC00445, 16× MIC): <3 × 10^−9
- Single-step spontaneous mutation frequency ([2]; ACC00535, 2× MIC): 2 × 10^−7
- Single-step spontaneous mutation frequency ([2]; ACC00535, 4× MIC): 2 × 10^−7
- Single-step spontaneous mutation frequency ([2]; ACC00535, 8× MIC): 9 × 10^−8
- Single-step spontaneous mutation frequency ([2]; ACC00535, 16× MIC): <3 × 10^−9
- Single-step spontaneous mutation frequency ([2]; ACC01073, 2× MIC): 1 × 10^−8
- Single-step spontaneous mutation frequency ([2]; ACC01073, 4× MIC): 7 × 10^−9
- Single-step spontaneous mutation frequency ([2]; ACC01073, 8× MIC): <4 × 10^−9
- Single-step spontaneous mutation frequency ([2]; ACC01073, 16× MIC): <4 × 10^−9
- Single-step spontaneous mutation frequency ([2]; ACC01077, 2× MIC): 4 × 10^−9
- Single-step spontaneous mutation frequency ([2]; ACC01077, 4× MIC): <4 × 10^−9
- Single-step spontaneous mutation frequency ([2]; ACC01077, 8× MIC): <4 × 10^−9
- Single-step spontaneous mutation frequency ([2]; ACC01077, 16× MIC): <4 × 10^−9
- Single-step spontaneous mutation frequency ([2]; ACC01085/AR0307, 2× MIC): 1 × 10^−6
- Single-step spontaneous mutation frequency ([2]; ACC01085/AR0307, 4× MIC): <2 × 10^−9
- Single-step spontaneous mutation frequency ([2]; ATCC BAA-747, 2× MIC): 2 × 10^−7
- Single-step spontaneous mutation frequency ([2]; ATCC BAA-747, 4× MIC): <1 × 10^−8
- Single-step spontaneous mutation frequency ([2]; ATCC BAA-747, 8× MIC): <1 × 10^−8
- Single-step spontaneous mutation frequency ([2]; ATCC BAA-747, 16× MIC): <1 × 10^−8
- Single-step spontaneous mutation frequency ([2]; ROB08706, 2× MIC): 4 × 10^−8
- Single-step spontaneous mutation frequency ([2]; ROB08706, 4× MIC): 6 × 10^−8
- Single-step spontaneous mutation frequency ([2]; ROB08706, 8× MIC): <2 × 10^−8
- Single-step spontaneous mutation frequency ([2]; ROB08706, 16× MIC): <2 × 10^−8
- Single-step spontaneous mutation frequency ([2]; ROB08708, 2× MIC): 2 × 10^−7
- Single-step spontaneous mutation frequency ([2]; ROB08708, 4× MIC): 1 × 10^−7
- Single-step spontaneous mutation frequency ([2]; ROB08708, 8× MIC): <4 × 10^−9
- Single-step spontaneous mutation frequency ([2]; ROB08708, 16× MIC): <4 × 10^−9
- LPS extraction to LptA (E. coli LptB2FGC): no effect on LPS extraction
- MIC (A. baumannii; ACC00445): 0.25 µg/mL (≈ 0.316 µM)
- MIC (A. baumannii; ACC00535): 0.12 µg/mL (≈ 0.152 µM)
- MIC (A. baumannii; ACC01073): 1 µg/mL (≈ 1.26 µM)
- MIC (A. baumannii; ACC01077): 0.25 µg/mL (≈ 0.316 µM)
- MIC (A. baumannii; ACC01085/AR0307): 0.25 µg/mL (≈ 0.316 µM)
- MIC (A. baumannii; ATCCBAA747, ATCC BAA-747): 0.12 µg/mL (≈ 0.152 µM)
- MIC (A. baumannii; ROB08706): 1 µg/mL (≈ 1.26 µM)
- MIC (A. baumannii; ROB08708): 0.12 µg/mL (≈ 0.152 µM)
- logD7.4 [3]: –2.46
